Measurements published in ChEMBL document CHEMBL1201862, “PubChem BioAssay data set” (2004).
Activity calls are given as the source filed them.

Experiments:
[1] = THP-1 cell cytotoxicity, dose response, cytotoxicity control for non-replicating M. tuberculosis project (AID 489025); type: functional
[2] = target: T1, Short transient receptor potential channel 4 (Mus musculus, UniProt Q9QUQ5); assay: calcium entry via TRPC4 opening agents – cell-based, HEK293 TRPC4/mu-opioid, Fluo-4 calcium, dose response (AID 434937); type: functional
T1 sequence (Q9QUQ5 whole entry): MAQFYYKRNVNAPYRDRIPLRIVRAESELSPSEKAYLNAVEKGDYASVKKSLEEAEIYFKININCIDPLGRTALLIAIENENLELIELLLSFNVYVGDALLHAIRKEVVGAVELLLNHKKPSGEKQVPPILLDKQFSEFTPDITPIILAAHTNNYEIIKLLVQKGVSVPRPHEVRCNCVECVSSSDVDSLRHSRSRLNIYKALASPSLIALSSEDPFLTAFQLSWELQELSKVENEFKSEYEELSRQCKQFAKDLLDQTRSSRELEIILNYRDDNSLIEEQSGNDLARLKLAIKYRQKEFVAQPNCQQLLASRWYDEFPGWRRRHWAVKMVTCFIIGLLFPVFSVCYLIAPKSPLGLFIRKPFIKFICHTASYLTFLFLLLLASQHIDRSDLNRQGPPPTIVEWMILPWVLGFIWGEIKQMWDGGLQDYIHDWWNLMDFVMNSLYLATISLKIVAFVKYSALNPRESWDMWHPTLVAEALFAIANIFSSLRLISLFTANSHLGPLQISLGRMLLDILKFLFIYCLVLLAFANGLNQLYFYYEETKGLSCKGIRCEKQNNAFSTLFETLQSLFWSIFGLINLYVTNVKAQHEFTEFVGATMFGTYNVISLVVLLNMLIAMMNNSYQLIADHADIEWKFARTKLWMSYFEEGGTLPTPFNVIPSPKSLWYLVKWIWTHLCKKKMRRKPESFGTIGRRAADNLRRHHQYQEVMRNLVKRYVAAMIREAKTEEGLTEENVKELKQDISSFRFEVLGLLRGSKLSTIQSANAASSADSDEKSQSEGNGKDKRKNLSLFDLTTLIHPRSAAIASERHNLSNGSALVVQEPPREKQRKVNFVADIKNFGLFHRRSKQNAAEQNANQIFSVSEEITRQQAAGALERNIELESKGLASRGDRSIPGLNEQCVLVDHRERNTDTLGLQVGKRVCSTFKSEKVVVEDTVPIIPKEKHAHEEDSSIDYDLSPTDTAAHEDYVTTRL

cells = type: functional
Vero = assay: cells; type: functional; conditions: Chlorocebus sabaeus
Caspase-6 = target: T2, Caspase-6 (Homo sapiens, UniProt P55212); assay: inhibition of CASP6 peptide cleavage – biochemical, VEID-R110 fluorescence, cherry-pick, dose response (AID 720632)
T2 sequence (P55212 whole entry): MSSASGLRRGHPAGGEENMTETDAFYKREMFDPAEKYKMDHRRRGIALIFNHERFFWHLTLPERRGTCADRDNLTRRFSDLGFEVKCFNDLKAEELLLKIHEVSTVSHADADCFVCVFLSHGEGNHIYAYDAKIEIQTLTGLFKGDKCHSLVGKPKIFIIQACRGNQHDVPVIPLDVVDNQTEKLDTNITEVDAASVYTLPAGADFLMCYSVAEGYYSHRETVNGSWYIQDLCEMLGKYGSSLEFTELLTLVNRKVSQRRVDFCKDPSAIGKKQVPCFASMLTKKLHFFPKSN

[3] = non-specific 3'UTR reporter inhibition in Clone20-Shn3RL – cell-based, Renilla luciferase, cherry-picked, counter-screen for Shn3 inhibitor project, dose response (AID 624133); type: functional
[4] = reduction of Shn3 3'UTR-driven luciferase in osteoblasts – cell-based, Clone20 osteoblasts, firefly luciferase, cherry-picked, dose response (AID 624132); type: functional;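 note: firefly luciferase luminescence from reporter carrying the Shn3 3'UTR in osteoblasts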
[5] = NIH-3T3 fibroblast cytotoxicity, dose response, cytotoxicity control, cell-based, fluorescence, Alamar Blue, secondary assay (AID 2327); type: functional;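 note: NIH-3T3 mouse fibroblasts cultured with fluconazole at 8 µg/mL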
[6] = microbe, parasite or virus in culture; type: functional; conditions: Mycobacterium tuberculosis
[7] = loss of viability in HepG2 cells – cell-based, CellTiter-Glo, cherry-picked, cytotoxicity control for Shn3 inhibitor project, dose response (AID 624134); type: functional
[8] = target: Heat shock protein HSP 90-alpha (Homo sapiens, UniProt P07900); type: functional, organism-based
[9] = target: T3, Heat shock factor protein 1 (Mus musculus, UniProt P38532); assay: decrease of HSF1-responsive luciferase luminescence – cell-based, NIH3T3, dose retest, confirmation (AID 2382); type: functional;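 note: NIH3T3 fibroblasts with HSF1-driven luciferase reporter stressed by proteasome inhibitor MG132; luminescence from HSF1-driven luciferase expression after 8 hours of MG132 stress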
T3 sequence (P38532 whole entry): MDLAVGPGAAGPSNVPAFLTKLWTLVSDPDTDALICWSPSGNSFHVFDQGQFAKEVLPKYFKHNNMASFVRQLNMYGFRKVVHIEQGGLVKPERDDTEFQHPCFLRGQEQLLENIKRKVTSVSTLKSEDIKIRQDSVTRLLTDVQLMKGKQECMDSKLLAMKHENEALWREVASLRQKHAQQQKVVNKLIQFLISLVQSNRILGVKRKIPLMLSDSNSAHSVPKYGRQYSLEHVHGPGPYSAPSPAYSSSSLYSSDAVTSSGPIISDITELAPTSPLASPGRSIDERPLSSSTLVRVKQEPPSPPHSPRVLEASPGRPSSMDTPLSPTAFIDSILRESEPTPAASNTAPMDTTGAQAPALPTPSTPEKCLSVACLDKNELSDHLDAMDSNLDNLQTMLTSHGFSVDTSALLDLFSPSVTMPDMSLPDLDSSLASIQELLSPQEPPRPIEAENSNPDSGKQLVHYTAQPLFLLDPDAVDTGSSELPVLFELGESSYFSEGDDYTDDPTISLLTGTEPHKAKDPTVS

[10] = fluconazole-exposed Candida albicans growth modulators – fluorescence, retest, confirmation (AID 2467); type: functional, cell-based
Fatty acid synthase [11] = target: T4, Fatty acid synthase (Homo sapiens, UniProt P49327); assay: inhibition of human FAS-TE enzyme activity – biochemical, endpoint fluorescence intensity, uHTS hits, dose response (AID 624327); type: functional;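 note: fluorescence from hydrolysis of an O-methyl fluorescein acyl ester substrate by the enzyme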
T4 sequence (P49327 whole entry): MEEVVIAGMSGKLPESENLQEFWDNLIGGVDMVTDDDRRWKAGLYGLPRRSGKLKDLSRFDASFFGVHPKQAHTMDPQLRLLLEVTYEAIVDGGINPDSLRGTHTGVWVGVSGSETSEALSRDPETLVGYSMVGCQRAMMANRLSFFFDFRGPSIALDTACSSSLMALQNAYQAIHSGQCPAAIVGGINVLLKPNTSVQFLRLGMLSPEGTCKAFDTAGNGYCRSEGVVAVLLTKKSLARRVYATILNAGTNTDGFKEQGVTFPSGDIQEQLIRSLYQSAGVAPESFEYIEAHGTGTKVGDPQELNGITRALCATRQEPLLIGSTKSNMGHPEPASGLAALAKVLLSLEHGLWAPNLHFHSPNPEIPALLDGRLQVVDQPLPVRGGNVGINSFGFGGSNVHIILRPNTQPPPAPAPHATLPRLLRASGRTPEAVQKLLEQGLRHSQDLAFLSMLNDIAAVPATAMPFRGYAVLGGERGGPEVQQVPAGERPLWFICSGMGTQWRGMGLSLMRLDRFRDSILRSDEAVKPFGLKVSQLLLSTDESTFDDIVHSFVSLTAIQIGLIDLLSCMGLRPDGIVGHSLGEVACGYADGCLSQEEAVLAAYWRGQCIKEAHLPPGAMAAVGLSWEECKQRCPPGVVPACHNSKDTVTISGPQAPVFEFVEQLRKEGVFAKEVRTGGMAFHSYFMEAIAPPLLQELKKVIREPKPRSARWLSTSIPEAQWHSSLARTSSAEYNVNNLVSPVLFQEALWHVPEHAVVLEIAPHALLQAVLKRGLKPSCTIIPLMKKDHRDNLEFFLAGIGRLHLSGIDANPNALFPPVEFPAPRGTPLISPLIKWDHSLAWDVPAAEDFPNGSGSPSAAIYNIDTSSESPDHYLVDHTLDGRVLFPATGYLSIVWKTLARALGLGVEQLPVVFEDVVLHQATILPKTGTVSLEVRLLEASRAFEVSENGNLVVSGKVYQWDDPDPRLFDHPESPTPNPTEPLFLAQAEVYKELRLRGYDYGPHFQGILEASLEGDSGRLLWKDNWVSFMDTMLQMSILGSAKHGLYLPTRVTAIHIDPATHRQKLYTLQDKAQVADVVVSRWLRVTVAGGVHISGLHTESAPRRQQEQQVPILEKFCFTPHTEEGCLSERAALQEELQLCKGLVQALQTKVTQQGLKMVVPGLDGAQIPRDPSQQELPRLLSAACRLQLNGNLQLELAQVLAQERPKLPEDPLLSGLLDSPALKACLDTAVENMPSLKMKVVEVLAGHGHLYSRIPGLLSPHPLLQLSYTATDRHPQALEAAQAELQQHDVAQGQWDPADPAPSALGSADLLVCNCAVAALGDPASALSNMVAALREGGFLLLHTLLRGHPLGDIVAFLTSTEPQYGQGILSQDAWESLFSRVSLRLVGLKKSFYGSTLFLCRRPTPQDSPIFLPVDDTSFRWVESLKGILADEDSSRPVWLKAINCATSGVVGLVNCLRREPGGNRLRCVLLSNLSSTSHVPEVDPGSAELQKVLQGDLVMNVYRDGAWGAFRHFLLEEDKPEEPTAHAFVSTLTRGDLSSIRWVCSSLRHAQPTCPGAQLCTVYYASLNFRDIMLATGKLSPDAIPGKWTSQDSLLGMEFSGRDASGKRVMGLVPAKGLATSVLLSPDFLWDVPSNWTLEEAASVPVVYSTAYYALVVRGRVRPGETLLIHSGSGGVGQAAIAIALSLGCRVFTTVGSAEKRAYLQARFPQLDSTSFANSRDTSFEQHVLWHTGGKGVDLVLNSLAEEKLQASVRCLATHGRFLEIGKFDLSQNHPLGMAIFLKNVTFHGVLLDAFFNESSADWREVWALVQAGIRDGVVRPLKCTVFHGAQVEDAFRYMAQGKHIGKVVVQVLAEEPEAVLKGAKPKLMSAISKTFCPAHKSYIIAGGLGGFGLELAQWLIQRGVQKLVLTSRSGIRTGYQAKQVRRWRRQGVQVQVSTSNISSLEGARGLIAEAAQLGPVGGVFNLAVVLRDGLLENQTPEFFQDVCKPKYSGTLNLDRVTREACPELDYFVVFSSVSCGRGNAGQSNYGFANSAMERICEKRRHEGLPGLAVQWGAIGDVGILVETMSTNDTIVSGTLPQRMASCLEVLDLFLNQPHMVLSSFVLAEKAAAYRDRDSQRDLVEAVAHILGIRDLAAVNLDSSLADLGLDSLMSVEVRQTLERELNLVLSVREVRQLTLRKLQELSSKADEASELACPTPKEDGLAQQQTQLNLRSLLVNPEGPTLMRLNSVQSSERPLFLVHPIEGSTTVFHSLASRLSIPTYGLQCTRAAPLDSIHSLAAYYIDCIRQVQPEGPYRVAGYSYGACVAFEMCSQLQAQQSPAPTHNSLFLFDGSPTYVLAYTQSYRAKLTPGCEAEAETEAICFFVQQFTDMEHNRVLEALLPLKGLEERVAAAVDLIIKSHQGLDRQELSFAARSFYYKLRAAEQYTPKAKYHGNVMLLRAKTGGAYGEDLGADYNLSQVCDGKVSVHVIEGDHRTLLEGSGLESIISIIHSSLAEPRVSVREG

Fatty acid synthase [12] = target: T4, Fatty acid synthase; assay: inhibition of human FAS-TE enzyme activity – biochemical, kinetic fluorescence intensity, dose response (AID 624326); type: functional;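 note: rate of fluorescence rise from hydrolysis of a fluorogenic O-methyl fluorescein ester substrate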
Prothrombin = Prothrombin (Homo sapiens, UniProt P00734); assay: Thrombin 1536 HTS Dose Response Confirmation. [Related pubchem assays: 1046 (Thrombin 1536 HTS; hits were confirmed in this assay)]; type: functional
[13] = target: T5, Rac GTPase-activating protein 1 (Homo sapiens, UniProt Q9H0H5); assay: blockers of MgcRacGAP-driven Rac1 GTP hydrolysis – biochemical, ADP Hunter fluorescence, primary and confirmatory, confirmation (AID 624330); type: functional
T5 sequence (Q9H0H5 whole entry): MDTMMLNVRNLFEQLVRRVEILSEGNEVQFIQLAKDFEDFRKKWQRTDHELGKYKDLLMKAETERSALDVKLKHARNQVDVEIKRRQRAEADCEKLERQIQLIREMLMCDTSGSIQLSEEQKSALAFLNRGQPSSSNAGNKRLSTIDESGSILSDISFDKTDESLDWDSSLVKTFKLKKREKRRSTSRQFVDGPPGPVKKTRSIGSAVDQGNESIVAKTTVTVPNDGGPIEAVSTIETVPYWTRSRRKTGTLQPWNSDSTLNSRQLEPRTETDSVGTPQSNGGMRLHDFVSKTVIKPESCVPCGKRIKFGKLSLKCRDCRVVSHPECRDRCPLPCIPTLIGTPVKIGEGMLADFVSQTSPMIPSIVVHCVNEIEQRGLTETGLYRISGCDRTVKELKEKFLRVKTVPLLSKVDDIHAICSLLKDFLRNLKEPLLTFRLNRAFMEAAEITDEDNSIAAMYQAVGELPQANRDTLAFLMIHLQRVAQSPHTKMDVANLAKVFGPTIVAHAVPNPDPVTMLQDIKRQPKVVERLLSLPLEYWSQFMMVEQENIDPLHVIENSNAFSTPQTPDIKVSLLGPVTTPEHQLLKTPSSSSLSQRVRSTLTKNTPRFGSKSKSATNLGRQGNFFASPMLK

Aminopeptidase N = target: T6, Aminopeptidase N (Plasmodium falciparum FcB1/Columbia, UniProt O96935); assay: malaria alanyl aminopeptidase activity blockers – biochemical, fluorogenic H-Leu-NHMec substrate, 1536-well (AID 1445); design: species or system Plasmodium falciparum 3D7, 3D7
T6 sequence (O96935 whole entry): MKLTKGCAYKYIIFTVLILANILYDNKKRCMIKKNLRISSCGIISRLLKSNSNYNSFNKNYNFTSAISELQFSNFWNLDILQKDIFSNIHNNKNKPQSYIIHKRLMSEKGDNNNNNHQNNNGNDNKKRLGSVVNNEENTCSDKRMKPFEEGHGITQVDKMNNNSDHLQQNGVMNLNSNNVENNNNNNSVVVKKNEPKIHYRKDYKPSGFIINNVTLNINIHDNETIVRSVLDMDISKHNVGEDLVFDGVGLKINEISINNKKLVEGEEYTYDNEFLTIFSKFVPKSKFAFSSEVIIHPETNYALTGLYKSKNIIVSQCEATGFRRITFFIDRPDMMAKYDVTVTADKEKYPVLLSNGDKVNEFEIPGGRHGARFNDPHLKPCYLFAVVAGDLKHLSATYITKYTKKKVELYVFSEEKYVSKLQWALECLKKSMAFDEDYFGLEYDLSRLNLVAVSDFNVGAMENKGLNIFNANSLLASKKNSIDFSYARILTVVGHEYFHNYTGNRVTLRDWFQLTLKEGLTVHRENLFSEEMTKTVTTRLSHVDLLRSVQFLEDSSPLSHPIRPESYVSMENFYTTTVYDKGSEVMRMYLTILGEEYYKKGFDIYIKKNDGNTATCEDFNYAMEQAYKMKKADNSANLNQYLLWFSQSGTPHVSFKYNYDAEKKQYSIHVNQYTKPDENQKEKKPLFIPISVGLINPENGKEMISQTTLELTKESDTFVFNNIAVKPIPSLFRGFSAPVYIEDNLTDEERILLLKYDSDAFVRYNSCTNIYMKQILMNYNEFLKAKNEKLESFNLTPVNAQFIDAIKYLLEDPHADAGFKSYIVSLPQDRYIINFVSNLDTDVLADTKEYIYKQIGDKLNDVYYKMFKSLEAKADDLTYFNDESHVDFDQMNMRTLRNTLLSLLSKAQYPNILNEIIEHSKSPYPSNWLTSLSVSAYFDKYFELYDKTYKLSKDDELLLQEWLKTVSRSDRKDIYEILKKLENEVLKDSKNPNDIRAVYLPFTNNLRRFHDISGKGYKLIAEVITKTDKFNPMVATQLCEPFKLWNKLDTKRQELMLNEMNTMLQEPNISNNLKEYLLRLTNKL

Compound: Cc1ccc(/C=C2\SC(=S)N(C3CCS(=O)(=O)C3)C2=O)o1 (stereo not drawn)
- CC50 [1]: > 40 µM (active)

Compound: CCN1CCN(c2c(Cl)cccc2NC(=O)c2ccc3nsnc3c2)CC1
- EC50 [2]: 0.668 µM (active)

Compound: Clc1ccc(OCCCNCc2ccccc2)c2ccccc12
- IC50 (cells): 12.2 µM (active)
- CC50 (Vero): > 25 µM (active)
- CC50 [1]: 23.6 µM (active)

Compound: Cc1ccccc1S(=O)(=O)N1[C@@H]2CNC[C@H]1[C@@H]2c1ccc(-c2ccc(C#N)cc2)cc1
- AC50 (Caspase-6): 30.9 µM (active)

Compound: CCC12CCCN3CCc4c(n(c5ccccc45)C(O)(C(=O)OC)C1)C32 (stereo not drawn)
- AC50 (Caspase-6): 21.7 µM (active)

Compound: CC(C)(C)C(=O)NC(=S)NNC(=O)c1sc2ccccc2c1Cl
- AC50 [3]: 1.54 µM (active)
- AC50 [4]: 19.1 µM (active)
- EC50 [5]: 2.54 µM (inconclusive)
- EC50 [2]: 0.267 µM (active)
- CC50 [6]: 6.74 µM (active)
- AC50 [7]: 12.1 µM (active)
- AC50 [8]: 3.26 µM (active)
- EC50 [9]: 3.06 µM (active)
- EC50 [10]: 1.35 µM (active)

Compound: O=C(CCC(=O)Nc1ccc(F)cc1)N/N=C/c1cc([N+](=O)[O-])ccc1O
- IC50 (Fatty acid synthase [11]): 22.6 µM (inactive)
- IC50 (Fatty acid synthase [12]): 15.1 µM (active)

Compound: CCC(=O)n1nc(-c2ccco2)nc1SCc1ccccc1
- IC50 (Prothrombin): 0.00342 µM (active)

Compound: Clc1ccc(Cl)c(OCCCCNCc2ccccc2)c1
- IC50 (cells): 36.9 µM (active)
- CC50 [1]: 38.1 µM (active)

Compound: CCOC(=O)c1c(NC(=O)CSc2nnc(-c3ccccc3C)n2C)sc(C(C)=O)c1C
- IC50 (Fatty acid synthase [11]): 9.71 µM (active)
- IC50 (Fatty acid synthase [12]): 3.03 µM (active)

Compound: O=C(NNC(=O)C(c1ccccc1)c1ccccc1)c1cccs1
- IC50 (Prothrombin): > 50 µM (not active)

Compound: Cc1ccccc1CN1[C@@H](C)[C@H](c2ccccc2)Oc2cccc(NCC(C)C)c2S1(=O)=O
- AC50 (Caspase-6): 23.3 µM (active)

Compound: CC(C)(C)NC(=O)NC(=O)COC(=O)C1CCN(S(=O)(=O)c2cccs2)CC1
- IC50 (Fatty acid synthase [11]): 12.8 µM (active)
- IC50 (Fatty acid synthase [12]): 9.75 µM (active)

Compound: COc1cc(CNc2nc(C)c([N+](=O)[O-])c(C)c2C#N)cc(OC)c1OC
- IC50 (Fatty acid synthase [11]): 61.3 µM (inactive)
- IC50 (Fatty acid synthase [12]): 80 µM (inactive)

Compound: COC(=O)c1ccc(N2CCN(C)CC2)c(NC(=O)c2cccs2)c1
- EC50 [2]: 2.11 µM (active)

Compound: CC(Sc1nnc(-c2cc3ccccc3o2)n1-c1ccccc1)C(=O)O (stereo not drawn)
- IC50 (Prothrombin): > 50 µM (not active)

Compound: Oc1ccc(Cl)cc1/N=C/c1c[nH]nc1O
- IC50 [13]: 30 µM (active)
- IC50 (Aminopeptidase N): 14.3 µM (active)

Compound: Cc1ccc(OCC(=O)N2CCN(C(=O)CCC3CCCC3)CC2)cc1
- IC50 (Aminopeptidase N): 57.3 µM (active)

Compound: COc1ccccc1NC(=O)CCS(=O)(=O)c1ccccc1
- IC50 (Prothrombin): > 50 µM (not active)

Compound: CN(C)CCNc1nc(S(=O)(=O)c2ccccc2)c(Cl)s1
- IC50 (Aminopeptidase N): 51.9 µM (active)

Compound: CCN(CC)S(=O)(=O)c1ccc2c(c1)c(=O)c(C(=O)NCc1ccco1)cn2C
- EC50 [9]: > 195 µM (not active)
- IC50 (Prothrombin): 2.14 µM (active)
